Read-outs that look alike come from different tables or passages of the source. Values belong to the molecule of their own block, whether it stands above or below them. Peptide text beside a SMILES is read from it. * marks the point of attachment. Cbz = O=C(OCc1ccccc1)*
Assays:
[1] = target: T1, BRD3 (Homo sapiens, UniProt Q15059); conditions: cited from earlier work
[2] = target: T2, BRD2 (Homo sapiens, UniProt P25440); conditions: cited from earlier work
[3] = target: T3, BRD4 (Homo sapiens, UniProt O60885); assay: cell-based; conditions: HEK293, read-out: HEK293 (Dmax)
[4] = target: T3, BRD4; conditions: BRD4 degradation, 6 hours, N = 1; for DC50: read-out: HEK293 (DC50)
[5] = target: T3, BRD4; assay: Rescue of dBRD4-BD1-induced BRD4 degradation in MM.1S cells (competition experiments); type: cell-based; set-up: endogenous in cells; conditions: competition with dBRD4-BD1
[6] = target: T3, BRD4; assay: Competition of MZ1-induced BRD4 degradation with pan-BD1 or pan-BD2 inhibitors; type: cell-based; set-up: endogenous in cells; host or cells: HEK293T; conditions: competition with pan-BET degrader MZ1
[7] = tested on: cMyc; assay: Western blot cMyc expression in MM.1S cells; type: cell-based; conditions: compared with previously reported BRD4 degraders
Method: (§1) Western Blotting: MM.1S cells were seeded in 12-well plates at a density of 4×10^6 cells per well and treated with compounds for indicated times. Cells were transferred to 2 mL microcentrifuge tubes and harvested by low-speed centrifugation at 500×g. for 5 minutes. The well was rinsed, and the cell pellet washed twice with ice-cold PBS with centrifuging. The supernatant was carefully decanted, and the cell pellet was resuspended for lysis in 100 μL of RIPA buffer (ThermoFisher Scientific) supplemented with 1× cOmplete Mini Protease (Roche) and stored on ice for 10 minutes. After high-speed centrifugation (10 min at 10,000 X g.), protein concentrations were determined by the BCA assay (ThermoFisher Scientific) and normalized by total protein content.

[8] = target: T2, BRD2; assay: Western blot BRD2 levels in MM.1S cells; type: cell-based
Method: (§2) FIG. 4A-4D: Degradation of BRD4 in MM.1S cells. (A) Representative blots for degradation of BRD4 after 24-hour treatment. (B) Quantified densitometry for three biological replicates of blots from (A). (C) Time-course study of BRD4 degradation by dBRD4-BD1. (D) Rescue of BRD4 degradation using pan-BD1, proteasome and neddylation inhibitors, but not pan-BD2 inhibitor, iBET-BD2.
as §1

[9] = target: T1, BRD3; assay: Western blot BRD3 levels in MM.1S cells; type: cell-based
Method: as §2, §1

[10] = Solubility observed in AlphaScreen assay; conditions: required increased DMSO (1% v/v) in assay
[11] = target: T3, BRD4; assay: Western blot BRD4 degradation in MV411 cells; type: cell-based; set-up: endogenous in cells; conditions: 6 hours, N = 1
[12] = tested on: MM.1S cells; assay: 72 hour Alamar blue cytotoxicity assay of MM.1S cells; type: cell-based
Method: FIG. 5: 72 hour Alamar blue cytotoxicity assay of MM.1S cells with compounds. Data reported as mean±SD of three independent trials of three replicates each.
Viability Assays: MM. 1 S cells were seeded in 96-well plates at approximately 20 000 cells per well (0.05 mL) and dosed with increasing compound concentrations in the presence of DMSO with three technical replicates per concentration. After incubation for 69 hours at 37° C., 10 μL of the Alamar Blue reagent (Invitrogen) was added to each well and the plates were incubated for 3 hours at 37° C. Fluorescence was determined using a Synergy plate reader (BioTek, Ex.: 560 nm, Em.: 590 nm) and dose-response data were normalized to untreated and blank wells containing 0.05% DMSO in cell culture media. Data analysis was performed using GraphPad Prism.

[13] = target: T4, p38a kinase (Homo sapiens, UniProt Q16539); assay: Western blot p38a levels in MM.1S cells; type: cell-based; conditions: 24-hour time-point or time-course study at 5 μM
T4 construct: endogenous in cells; host or cells: MM.1S
T4 sequence (Q16539 whole entry): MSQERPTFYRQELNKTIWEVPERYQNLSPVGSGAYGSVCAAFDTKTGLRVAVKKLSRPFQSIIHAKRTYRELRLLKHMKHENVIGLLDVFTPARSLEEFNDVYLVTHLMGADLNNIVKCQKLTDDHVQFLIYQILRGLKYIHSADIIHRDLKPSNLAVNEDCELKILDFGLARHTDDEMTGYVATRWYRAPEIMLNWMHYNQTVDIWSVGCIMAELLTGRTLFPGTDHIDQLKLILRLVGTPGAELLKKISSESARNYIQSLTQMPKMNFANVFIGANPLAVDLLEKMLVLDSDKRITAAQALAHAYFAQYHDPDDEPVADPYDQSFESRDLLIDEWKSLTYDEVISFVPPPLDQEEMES
Method: as §2, §1

[14] = target: T5, 9xHis-BRD4-BD1 (Homo sapiens, UniProt O60885); assay: AlphaScreen binding assay with His9-tagged BRD4-BD1 (1% DMSO); conditions: 1% v/v DMSO; mean of three independent trials in duplicate; read-out: BRD4-BD1 IC50 (apparent binding)
T5 construct: 30 nM for His9-tagged BRD4-BD1 bromodomain and 50 nM for the biotinylated peptide were used; made in house

[15] = target: T3, BRD4; assay: Western blot BRD4 degradation in MM.1S cells; type: cell-based; set-up: endogenous in cells
Source text: as §2
The mixed suspension/adherent cells were subcultured at a 1:10 dilution by decanting suspended cells and dissociating adherent cells from plates in 0.25% trypsin/EDTA (Gibco) with 2 min incubation times. Cell-line authenticity was verified using the short-tandem-repeat (STR)-profiling service provided by ATCC.
as §1

[16] = target: BRD4 (Homo sapiens, UniProt O60885+Q96SW2); assay: TR-FRET ternary-complex formation; type: biochemical
Chain of BRD4 (Homo sapiens, UniProt O60885+Q96SW2) (Q96SW2 whole entry, one chain of several): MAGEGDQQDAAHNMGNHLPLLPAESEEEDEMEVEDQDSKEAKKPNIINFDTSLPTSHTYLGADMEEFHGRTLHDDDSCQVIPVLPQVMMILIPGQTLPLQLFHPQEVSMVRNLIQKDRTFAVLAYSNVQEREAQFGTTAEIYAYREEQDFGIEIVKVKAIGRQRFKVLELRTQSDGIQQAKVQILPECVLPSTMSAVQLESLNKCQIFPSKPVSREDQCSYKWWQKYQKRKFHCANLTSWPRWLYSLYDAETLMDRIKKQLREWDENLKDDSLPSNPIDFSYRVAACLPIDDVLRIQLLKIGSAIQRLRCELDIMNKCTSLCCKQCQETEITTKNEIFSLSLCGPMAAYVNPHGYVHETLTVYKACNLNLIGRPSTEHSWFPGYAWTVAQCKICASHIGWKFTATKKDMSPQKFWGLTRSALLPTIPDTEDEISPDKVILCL

T1 sequence (Q15059 whole entry): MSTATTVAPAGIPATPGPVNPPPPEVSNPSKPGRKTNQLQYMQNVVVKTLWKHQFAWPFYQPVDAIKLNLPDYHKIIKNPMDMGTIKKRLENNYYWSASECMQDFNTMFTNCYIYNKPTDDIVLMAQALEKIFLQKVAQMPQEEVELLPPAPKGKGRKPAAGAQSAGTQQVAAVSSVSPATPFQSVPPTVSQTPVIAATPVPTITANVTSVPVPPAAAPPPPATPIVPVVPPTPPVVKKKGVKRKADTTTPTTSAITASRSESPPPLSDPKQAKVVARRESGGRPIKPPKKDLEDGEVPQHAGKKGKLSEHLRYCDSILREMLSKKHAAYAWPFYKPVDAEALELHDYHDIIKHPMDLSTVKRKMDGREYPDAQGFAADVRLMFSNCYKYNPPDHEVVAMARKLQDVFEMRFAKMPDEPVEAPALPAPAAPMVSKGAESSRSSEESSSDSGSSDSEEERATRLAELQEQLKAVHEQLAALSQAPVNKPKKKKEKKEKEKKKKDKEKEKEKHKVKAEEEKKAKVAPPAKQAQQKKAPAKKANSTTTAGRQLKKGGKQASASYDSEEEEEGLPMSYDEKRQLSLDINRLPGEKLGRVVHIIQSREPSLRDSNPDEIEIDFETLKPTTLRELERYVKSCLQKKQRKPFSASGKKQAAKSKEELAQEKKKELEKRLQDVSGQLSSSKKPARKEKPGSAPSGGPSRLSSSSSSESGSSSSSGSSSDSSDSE
T2 sequence (P25440 whole entry): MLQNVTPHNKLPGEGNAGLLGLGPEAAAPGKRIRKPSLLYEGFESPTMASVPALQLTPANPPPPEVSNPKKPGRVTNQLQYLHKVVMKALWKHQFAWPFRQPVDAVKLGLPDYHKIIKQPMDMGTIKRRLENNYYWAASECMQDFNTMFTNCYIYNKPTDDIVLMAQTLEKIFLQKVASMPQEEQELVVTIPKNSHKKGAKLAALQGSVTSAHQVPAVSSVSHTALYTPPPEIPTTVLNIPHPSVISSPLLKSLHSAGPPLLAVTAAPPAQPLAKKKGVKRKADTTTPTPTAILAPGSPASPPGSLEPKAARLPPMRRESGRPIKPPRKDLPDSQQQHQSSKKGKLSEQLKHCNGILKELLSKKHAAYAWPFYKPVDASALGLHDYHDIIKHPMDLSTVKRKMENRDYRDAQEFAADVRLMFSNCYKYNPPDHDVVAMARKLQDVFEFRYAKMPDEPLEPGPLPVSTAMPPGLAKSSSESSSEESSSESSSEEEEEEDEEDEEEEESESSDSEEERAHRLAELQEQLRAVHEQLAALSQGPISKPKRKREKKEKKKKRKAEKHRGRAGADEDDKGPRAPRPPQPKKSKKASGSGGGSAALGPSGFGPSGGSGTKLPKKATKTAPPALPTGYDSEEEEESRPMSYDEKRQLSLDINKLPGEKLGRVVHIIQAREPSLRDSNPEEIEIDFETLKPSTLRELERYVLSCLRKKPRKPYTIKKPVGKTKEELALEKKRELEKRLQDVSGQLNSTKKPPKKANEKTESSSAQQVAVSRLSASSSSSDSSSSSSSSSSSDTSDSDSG

Structure (SMILES): COC(=O)C[C@@H]1N=C(c2ccc(Cl)cc2)c2c(sc(C(=O)NCCCCCNc3cccc4c3C(=O)N(C3CCC(=O)NC3=O)C4=O)c2C)-n2c(C)nnc21 (some centres unmarked) [ZXH-3-26]
concentration of BRD3 upon BRD4 degradation [1]: remain unchanged
concentration of BRD2 upon BRD4 degradation [2]: remain unchanged

Structure (SMILES): Cc1ccc(C(C)C)cc1Oc1nccc(-c2c(-c3ccc(C(F)(F)F)cc3)ncn2C2CCN(CCOCCOCCNC(=O)CNc3cccc4c3C(=O)N(C3CCC(=O)NC3=O)C4=O)CC2)n1 (centres unmarked) [Example 5]
Dmax [3]: 60%
DC50 [4]: 0.29 µM

Structure (SMILES): CC(C)C[C@@H](C=O)NC(=O)[C@H](CC(C)C)NC(=O)[C@H](CC(C)C)NC(=O)OCc1ccccc1 [MG-132] (Cbz-Leu-Leu-Leu-aldehyde)
rescue of BRD4 degradation by dBRD4-BD1 [5]: rescue of BRD4 degradation was observed

Structure (SMILES): Cc1ccc(C(C)C)cc1Oc1nccc(-c2c(-c3ccc(C(F)(F)F)cc3)ncn2C2CCN(CCOCCOCCNC(=O)CN(C)c3cccc4c3C(=O)N(C3CCC(=O)NC3=O)C4=O)CC2)n1 (centres unmarked) [Example 4]
Dmax [3]: 84%
DC50 [4]: 0.105 µM

rescue of BRD4 degradation by dBRD4-BD1 [5]: rescue of BRD4 degradation was observed
Structure (SMILES): NS(=O)(=O)OC[C@@H]1C[C@@H](n2ccc3c(N[C@H]4CCc5ccccc54)ncnc32)C[C@@H]1O [MLN4924]

Structure (SMILES): Cc1ccc(C(C)C)cc1Oc1nccc(-c2c(-c3ccc(C(F)(F)F)cc3)ncn2C2CCN(CCNC(=O)COc3cccc4c3C(=O)N(C3CCC(=O)NC3=O)C4=O)CC2)n1 (centres unmarked) [Example 6]
Dmax [3]: 95%
DC50 [4]: 0.81 µM

Structure (SMILES): CC(=O)N[C@H](C(=O)N1C[C@H](O)C[C@H]1C(=O)NCc1ccc(-c2scnc2C)cc1)C(C)(C)SCCCCCCNC(=O)C[C@@H]1N=C(c2ccc(Cl)cc2)c2c(sc(C)c2C)-n2c(C)nnc21 [AT1]
concentration of BRD3 upon BRD4 degradation [1]: remain unchanged
concentration of BRD2 upon BRD4 degradation [2]: remain unchanged

rescue of BRD4 degradation by dBRD4-BD1 [5]: no effect
Structure (SMILES): CC(=O)Nc1c(F)cc(C(=O)N[C@H]2CC[C@H](O)CC2)cc1O[C@@H](C)c1ccccc1 [iBET-BD2]
prevention of MZ1-induced BRD4 degradation by competitor [6]: neither BD1 nor BD2 inhibition was able to prevent BRD4 degradation

Structure (SMILES): Cc1ccc(C(C)C)cc1Oc1nccc(-c2c(-c3ccc(C(F)(F)F)cc3)ncn2C2CCN(CCOCCOCCNC(=O)COc3cccc4c3C(=O)N(C3CCC(=O)NC3=O)C4=O)CC2)n1 (centres unmarked) [dBRD4-BD1]
effect on cMyc expression [7]: weaker effect on cMyc expression
BRD2 level at concentrations where BRD4 was degraded [8]: upregulated
degradation of BRD2 ([8]; 24-hour treatment): not observed
BRD3 level at concentrations where BRD4 was degraded [9]: upregulated
degradation of BRD3 ([9]; 24-hour treatment): not observed
HEK293 (Dmax) [4]: 100%
DC50 [4]: 0.5 µM
solubility [10]: poor solubility
DC50 [11]: 0.014 µM
MV411 (Dmax) [11]: 85%
cytotoxicity [12]: lower observed cytotoxicity
degradation of p38a [13]: not observed
IC50 [14]: 1.36 µM
BRD4 degradation Dmax ([15]; 24-hour treatment): 23%
DC50 ([15]; 24-hour treatment): 0.28 µM
concentration above which BRD4 degradation diminished (hook effect) ([15]; 24-hour treatment): > 5 µM
time to maximal BRD4 degradation ([15]; time-course study at 5 μM): 8 h
ternary-complex formation by TR-FRET [16]: moderate ternary-complex formation
